The source of these data is patent publication US20090010873A1, “Methods of Cell Therapy, Neurogenesis and Oligodendrogenesis” (YEDA RESEARCH AND DEVELOPMENT CO. LTD., priority 2004, published 2009).

In one test the test system is microglia. Kind of test: TNF-α and IGF-I expression in treated microglia (RT-PCR, Q-PCR, immunocytochemistry). The class given is cell-based, mouse. The protocol:
(v) RNA purification, cDNA synthesis, and reverse-transcription PCR analysis. Cells were lysed with TRI reagent (MRC, Cincinnati, Ohio), and total cellular RNA was purified from lysates using the RNeasy kit (Qiagen, Hilden, Germany) according to the manufacturer's instructions. Residual genomic DNA was removed during the purification process by incubation with RNase-free DNase (Qiagen). RNA was stored in RNase-free water (Qiagen) at −80° C. RNA (1 μg) was converted to cDNA using SuperScript II ([…], Madison, Wis.), as recommended by the manufacturer. The cDNA mixture was diluted 1:5 with PCR-grade water.
We assayed the expression of specific mRNAs using semi-quantitative reverse transcription PCR(RT-PCR) with selected gene-specific primer pairs, using OLIGO v6.4 (Molecular Biology Insights, Cascade, Colo.).
The RT-PCR reactions were carried out using 1 μg of cDNA, […] of each primer, and ReadyMix PCR Master Mix (ABgene, Epsom, UK) in 30-μl reactions. PCR reactions were carried out in an Eppendorf PCR system with cycles (usually 25-30) of 95° C. for 30 s, 60° C. for 1 min, 72° C. for 1 min, and 72° C. for 5 min, and then kept at 4° C. As an internal standard for the amount of cDNA synthesized, we used β-actin mRNA. PCR products were subjected to agarose gel analysis and visualized by ethidium bromide staining. Signals were quantified using a Gel-Pro analyzer 3.1 (Media Cybernetics).
(xxiv) Real-time quantitative PCR analysis. Total cellular RNA purification and cDNA synthesis was performed as described in section (v) of Example 1 above. We assayed the expression of specific mRNAs using real-time quantitative PCR (Q-PCR) with selected gene-specific primer pairs. Q-PCR reactions were performed with a high-speed thermal cycler (LightCycler; Roche Diagnostics), and the product was detected by FastStart Master SYBR Green I (Roche Molecular Biochemicals) according to the manufacturer's instructions. The amplification cycle was 95° C. for 10 s, 60° C. for 5 s, and 72° C. for 10 s. The primers used were: […]

In another test the test system is aNPCs. Briefly: Neuronal differentiation of aNPCs with CD4+ T cells, T cell-conditioned medium or cytokines. The class given is cell-based, mouse. As to conditions: aNPCs cultured 5 days with the cytokine. As to the method: (xxxiii) Co-culturing of neural progenitor cells and T cells. CD4+ T cells were purified from lymph nodes of 8-week-old C57B16/J mice as previously described (Kipnis et al., 2004). T cells were activated in RPMI medium supplemented with L-glutamine (2 mM), 2-mercaptoethanol (5×10^−5 M), sodium pyruvate (1 mM), penicillin (100 IU/ml), streptomycin (100 μg/ml), nonessential amino acids (1 ml/100 ml), and autologous serum 2% (v/v) in the presence of mouse recombinant IL-2 (mrIL-2; 5 ng/ml) and soluble anti-CD28 and anti-CD3 antibodies (1 ng/ml). T cells were co-cultured (5×10^4 cells/well) with aNPCs (5×10^4 cells/well) for 5 d on cover slips coated with Matrigel (BD Biosciences) in 24-well plates. The cultures were then fixed with 2.5% paraformaldehyde in PBS for 30 min at room temperature and stained for neuronal markers.
We therefore sought to determine whether direct interaction between aNPCs and T cells would also result in an altered pattern of aNPC differentiation. To address this question, we activated CD4+ T cells in vitro by a cognate protocol (with anti-CD3 antibodies, anti-CD28 antibodies, and IL-2) for 24 h and then allowed their activation to continue in co-cultures with aNPCs in a transwell culture system. […] After 5 days in culture the aNPCs in the lower chamber were fixed and analyzed for the appearance of newly formed neurons. […]

For the substance IFN-γ, the “expression of IGF-I in microglia (Q-PCR)” value in the test on microglia (10 ng/ml, 24 h) was “no effect”; in the test on microglia (100 ng/ml, 24 h), “completely arrested”. In addition, in the test on microglia (RT-PCR time course and immunocytochemistry, IL-4 10 ng/ml, IFN-γ 20 ng/ml, LPS 100 ng/ml), the “IGF-I production/expression by microglia” value is recorded as “down-regulation of IGF-I”. The “TNF-α production by microglia” value with microglia (RT-PCR time course, IFN-γ 20 ng/ml) is given as “transient increase”. In the test on microglia (high-dose IFN-γ (100 ng/ml), 24 h), the “TNF-α production in microglia (Q-PCR)” value is “induced”. For the same substance, in the test on aNPCs, the “concentration (as low as) inducing an increase in β-III tubulin expression” value worked out at 1 ng/mL.
